Measured values published in US20250129104A1, “7H-PYRROLO[2,3-D]PYRIMIDINES AND PREPARATION AND USES THEREOF” (BioSplice Therapeutics, Inc., priority 2021, published 2025).

Molecular target: recombinant DYRK1A kinase (Homo sapiens (Human), UniProt Q13627)
Assay: DYRK1A kinase assay (Ser/Thr 18 peptide Z-lyte FRET assay)
Type: biochemical
Details: DYRK1A kinase activity; 15 μM ATP, 1 h room temperature; method text calls the value IC50
Summary of the method: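 FRET Z-lyte read-out (coumarin/fluorescein ratio, % phosphorylation) after 1 h development; IC50 from non-linear curve fit. Reaction: 0.25 μg/mL recombinant human DYRK1A, Ser/Thr 18 peptide 4 μM, ATP 15 μM, compound in 11-point 1:3 series from 10 μM, 1 h, room temperature, duplicate wells.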

First: CN1CCN(C(=O)c2cnn3ccc(-c4c[nH]c5ncnc(NCC6CC6)c45)cc23)CC1 [Compound 1244, (5-(4-((cyclopropylmethyl)amino)-7H-pyrrolo[2,3-d]pyrimidin-5-yl)pyrazolo[1,5-a]pyridin-3-yl)(4-methylpiperazin-1-yl)methanone]
Second: CN1CCC(NC(=O)c2cnn3ccc(-c4c[nH]c5nc(N)ncc45)cc23)CC1 [Compound 1511, 5-(2-amino-7H-pyrrolo[2,3-d]pyrimidin-5-yl)-N-(1-methylpiperidin-4-yl)pyrazolo[1,5-a]pyridine-3-carboxamide]
The EC50 of the first is 150-fold higher: 494 nM for the first, 3.4 nM for the second.

Going from CN(C)C(=O)c1cnn2ccc(-c3c[nH]c4nc(C5CC5)ncc34)cc12 [Compound 1245, 5-(2-Cyclopropyl-7H-pyrrolo[2,3-d]pyrimidin-5-yl)-N,N-dimethylpyrazolo [1,5-a]pyridine-3-carboxamide] to CN(C(=O)c1cnn2ccc(-c3c[nH]c4nc(C5CC5)ncc34)cc12)C1CC(F)(F)C1 [Compound 1379, 5-(2-Cyclopropyl-7H-pyrrolo[2,3-d]pyrimidin-5-yl)-N-(3,3-difluorocyclobutyl)-N-methylpyrazolo[1,5-a]pyridine-3-carboxamide], the EC50 falls from 182 nM to 79.8 nM (2.3-fold). The second is the more potent here.

First: O=C(NCC1CC(F)(F)C1)c1cnn2ccc(-c3c[nH]c4nc(C5CC5)ncc34)cc12 [Compound 1422, 5-(2-Cyclopropyl-7H-pyrrolo[2,3-d]pyrimidin-5-yl)-N-((3,3-difluorocyclobutyl)methyl)pyrazolo[1,5-a]pyridine-3-carboxamide]
Second: CC(C)Nc1ncc2c(-c3ccn4ncc(C(=O)NCC5CC(F)(F)C5)c4c3)c[nH]c2n1 [Compound 1428, N-((3,3-Difluorocyclobutyl)methyl)-5-(2-(isopropylamino)-7H-pyrrolo[2,3-d]pyrimidin-5-yl)pyrazolo[1,5-a]pyridine-3-carboxamide]
The EC50 of the first is 1.9-fold lower: 6 nM for the first, 11.4 nM for the second.

CO[C@H]1CC[C@H](NC(=O)c2cnn3ccc(-c4c[nH]c5nc(C6CC6)ncc45)cc23)CC1 [Compound 1465, 5-(2-Cyclopropyl-7H-pyrrolo[2,3-d]pyrimidin-5-yl)-N-(trans-4-methoxycyclohexyl)pyrazolo[1,5-a]pyridine-3-carboxamide] and O=C(NC1CCOCC1)c1cnn2ccc(-c3c[nH]c4nc(C5CC5)ncc34)cc12 [Compound 1551, 5-(2-Cyclopropyl-7H-pyrrolo[2,3-d]pyrimidin-5-yl)-N-(tetrahydro-2H-pyran-4-yl)pyrazolo[1,5-a]pyridine-3-carboxamide] are within 1.5-fold of each other in EC50: 6.7 nM for the first, 7.5 nM for the second.

First: CC(C)Cc1ncc2c(-c3ccn4nccc4n3)c[nH]c2n1 [Compound 1636, 2-Isobutyl-5-(pyrazolo[1,5-a]pyrimidin-5-yl)-7H-pyrrolo[2,3-d]pyrimidine]
Second: CC(C)(C)CNc1ncc2c(-c3ccn4nccc4n3)c[nH]c2n1 [Compound 1646, N-Neopentyl-5-(pyrazolo[1,5-a]pyrimidin-5-yl)-7H-pyrrolo[2,3-d]pyrimidin-2-amine]
The EC50 of the first is 11-fold higher: 214 nM for the first, 19.1 nM for the second.

Compared with CC(F)(F)CNc1ncc2c(-c3ccn4nccc4n3)c[nH]c2n1 [Compound 1649, N-(2,2-Difluoropropyl)-5-(pyrazolo[1,5-a]pyrimidin-5-yl)-7H-pyrrolo[2,3-d]pyrimidin-2-amine], FC(F)(F)CNc1ncc2c(-c3ccn4nccc4n3)c[nH]c2n1 [Compound 1650, 5-(Pyrazolo[1,5-a]pyrimidin-5-yl)-N-(2,2,2-trifluoroethyl)-7H-pyrrolo[2,3-d]pyrimidin-2-amine] is 3.4-fold higher in EC50: 5.9 nM for the first, 19.8 nM for the second.

Compared with C[C@@H](Nc1ncc2c(-c3ccn4nccc4n3)c[nH]c2n1)C(F)(F)F [Compound 1651, (R)-5-(Pyrazolo[1,5-a]pyrimidin-5-yl)-N-(1,1,1-trifluoropropan-2-yl)-7H-pyrrolo[2,3-d]pyrimidin-2-amine], C[C@H](Nc1ncc2c(-c3ccn4nccc4n3)c[nH]c2n1)C(F)(F)F [Compound 1652, (S)-5-(Pyrazolo[1,5-a]pyrimidin-5-yl)-N-(1,1,1-trifluoropropan-2-yl)-7H-pyrrolo[2,3-d]pyrimidin-2-amine] is 7.8-fold higher in EC50: 13.2 nM for the first, 103 nM for the second.

Going from FC1(F)CCC(Nc2ncc3c(-c4ccn5nccc5n4)c[nH]c3n2)CC1 [Compound 1663, N-(4,4-Difluorocyclohexyl)-5-(pyrazolo[1,5-a]pyrimidin-5-yl)-7H-pyrrolo [2,3-d]pyrimidin-2-amine] to c1cc2nc(-c3c[nH]c4nc(NC5CCOCC5)ncc34)ccn2n1 [Compound 1669, 5-(Pyrazolo[1,5-a]pyrimidin-5-yl)-N-(tetrahydro-2H-pyran-4-yl)-7H-pyrrolo [2,3-d]pyrimidin-2-amine], the EC50 falls from 9.2 nM to 6.1 nM (1.5-fold). The second is the more potent here.

First: CN1CCC(Nc2ncc3c(-c4ccn5nccc5n4)c[nH]c3n2)CC1 [Compound 1667, N-(1-Methylpiperidin-4-yl)-5-(pyrazolo[1,5-a]pyrimidin-5-yl)-7H-pyrrolo [2,3-d]pyrimidin-2-amine]
Second: CN1CCC(Nc2ncc3c(-c4ccc5c(c4)OC(C)(C)CC5=O)c[nH]c3n2)CC1 [Compound 1801, 2,2-Dimethyl-7-(2-((1-methylpiperidin-4-yl)amino)-7H-pyrrolo[2,3-d]pyrimidin-5-yl)chroman-4-one]
The EC50 of the first is 3.5-fold lower: 19 nM for the first, 66.9 nM for the second.

Going from CC(C)(F)CNc1ncc2c(-c3ccn4ncc(F)c4n3)c[nH]c2n1 [Compound 1678, N-(2-Fluoro-2-methylpropyl)-5-(3-fluoropyrazolo[1,5-a]pyrimidin-5-yl)-7H-pyrrolo[2,3-d]pyrimidin-2-amine] to CC(C)(F)CNc1ncc2c(-c3ccn4ncc(C5CC5)c4n3)c[nH]c2n1 [Compound 1695, 5-(3-Cyclopropylpyrazolo[1,5-a]pyrimidin-5-yl)-N-(2-fluoro-2-methylpropyl)-7H-pyrrolo[2,3-d]pyrimidin-2-amine], the EC50 falls from 21.1 nM to 5.1 nM (4.1-fold).

C[C@@H](Nc1ncc2c(-c3ccn4ncc(F)c4n3)c[nH]c2n1)C(F)(F)F [Compound 1679, (R)-5-(3-Fluoropyrazolo[1,5-a]pyrimidin-5-yl)-N-(1,1,1-trifluoropropan-2-yl)-7H-pyrrolo[2,3-d]pyrimidin-2-amine] and C[C@@H](Nc1ncc2c(-c3ccn4ncc(Cl)c4n3)c[nH]c2n1)C(F)(F)F [Compound 1681, (R)-5-(3-Chloropyrazolo[1,5-a]pyrimidin-5-yl)-N-(1,1,1-trifluoropropan-2-yl)-7H-pyrrolo[2,3-d]pyrimidin-2-amine] are within 1.5-fold of each other in EC50: 92.9 nM for the first, 98.8 nM for the second.

Going from CN1CCC(CNc2ncc3c(-c4ccc5c(c4)OCCNC5=O)c[nH]c3n2)CC1 [Compound 1758, 8-(2-(((1-Methylpiperidin-4-yl)methyl)amino)-7H-pyrrolo[2,3-d]pyrimidin-5-yl)-3,4-dihydrobenzo[f][1,4]oxazepin-5(2H)-one] to CN1CCN(c2cc(Nc3ncc4c(-c5ccc6c(c5)CCCO6)c[nH]c4n3)ccn2)CC1 [Compound 1768, 5-(Chroman-6-yl)-N-(2-(4-methylpiperazin-1-yl)pyridin-4-yl)-7H-pyrrolo [2,3-d]pyrimidin-2-amine], the EC50 rises from 7.3 nM to 34.8 nM (4.8-fold). The first is the more potent here.

Going from COc1nc(CC(C)C)nc2[nH]cc(-c3ccc4ncccc4c3)c12 [Compound 1857, 6-(2-Isobutyl-4-methoxy-7H-pyrrolo[2,3-d]pyrimidin-5-yl)quinoline] to Nc1ncc2c(-c3ccc4ncccc4c3)c[nH]c2n1 [Compound 1862, 5-(Quinolin-6-yl)-7H-pyrrolo[2,3-d]pyrimidin-2-amine], the EC50 falls from 42.7 nM to 2.9 nM (15-fold).

First: CNc1ncc2c(-c3ccc4ncccc4c3)c[nH]c2n1 [Compound 1863, N-Methyl-5-(quinolin-6-yl)-7H-pyrrolo[2,3-d]pyrimidin-2-amine]
Second: CC(C)(C)CNc1ncc2c(-c3ccc4ncccc4c3)c[nH]c2n1 [Compound 1867, N-Neopentyl-5-(quinolin-6-yl)-7H-pyrrolo[2,3-d]pyrimidin-2-amine]
The EC50 of the first is 24-fold lower: 2.9 nM for the first, 69.7 nM for the second. The first is the more potent here.

Compared with CC(C)(F)CNc1ncc2c(-c3ccc4ncccc4c3)c[nH]c2n1 [Compound 1869, N-(2-Fluoro-2-methylpropyl)-5-(quinolin-6-yl)-7H-pyrrolo[2,3-d]pyrimidin-2-amine], c1cnc2ccc(-c3c[nH]c4nc(NC5CCOCC5)ncc34)cc2c1 [Compound 1890, 5-(Quinolin-6-yl)-N-(tetrahydro-2H-pyran-4-yl)-7H-pyrrolo[2,3-d]pyrimidin-2-amine] is 1.5-fold higher in EC50: 4 nM for the first, 6 nM for the second.

Going from CN1CCN(c2cccc(Nc3ncc4c(-c5ccc6ncccc6c5)c[nH]c4n3)c2)CC1 [Compound 1891, N-(3-(4-Methylpiperazin-1-yl)phenyl)-5-(quinolin-6-yl)-7H-pyrrolo[2,3-d]pyrimidin-2-amine] to CN1CCN(c2cc(Nc3ncc4c(-c5ccc6ncccc6c5)c[nH]c4n3)ccn2)CC1 [Compound 1893, N-(2-(4-Methylpiperazin-1-yl)pyridin-4-yl)-5-(quinolin-6-yl)-7H-pyrrolo [2,3-d]pyrimidin-2-amine], the EC50 falls from 4.1 nM to 0.5 nM (8.2-fold).

Going from c1cnc2ccc(-c3c[nH]c4nc(Nc5ccncc5)ncc34)cc2c1 [Compound 1892, N-(pyridin-4-yl)-5-(quinolin-6-yl)-7H-pyrrolo[2,3-d]pyrimidin-2-amine] to CN1CCN(c2ccc(Nc3ncc4c(-c5ccc6ncccc6c5)c[nH]c4n3)cn2)CC1 [Compound 1894, N-(6-(4-Methylpiperazin-1-yl)pyridin-3-yl)-5-(quinolin-6-yl)-7H-pyrrolo [2,3-d]pyrimidin-2-amine], the EC50 rises from 0.8 nM to 2.3 nM (2.9-fold). The first is the more potent here.

Going from CN1CCN(c2ccc(CNc3ncc4c(-c5ccc6ncccc6c5)c[nH]c4n3)cn2)CC1 [Compound 1895, N-((6-(4-Methylpiperazin-1-yl)pyridin-3-yl)methyl)-5-(quinolin-6-yl)-7H-pyrrolo[2,3-d]pyrimidin-2-amine] to c1cnc2ccc(-c3ncc4c(-c5ccc6ncccc6c5)c[nH]c4n3)cc2c1 [Compound 1896, 6,6′-(7H-pyrrolo[2,3-d]pyrimidine-2,5-diyl)diquinoline], the EC50 rises from 3.6 nM to 15.6 nM (4.3-fold).

Cn1cc(-c2ncnc3[nH]cc(-c4ccc5ncccc5c4)c23)cn1 [Compound 1897, 6-(4-(1-methyl-1H-pyrazol-4-yl)-7H-pyrrolo[2,3-d]pyrimidin-5-yl)quinoline] showed an EC50 of 18.1 nM.
